Measurements taken from patent publication US4183930A, “Amino derivatives of pyrazolo [1,5-a]s-triazine, and their therapeutic applications” (Aron S.A., priority 1978, dated 1980).
Like-named read-outs stand apart in the source and are kept apart here.

Key:
[1] = system: passive cutaneous anaphylaxis in rats; assay: Protective effect against passive cutaneous anaphylaxis (PCA) in rats; type: in vivo; details: Rattus norvegicus, ip, 100 mg/kg i.p., 30 min prior to ovalbumin injection, read-out: % Protection (with respect to the controls)
Experimental: (b) Protective effect against passive cutaneous anaphylaxis in rats
The protective effect against passive cutaneous anaphylaxis (PCA) in rats were investigated according to the technique disclosed by Rosenthale and co-workers (J. Pharm. Exp. Therap. 1976, 197, 725-733). Antisera were prepared by sub-cutaneous injection of 1 mg/ml ovalbumin and by intraperitoneal injection of b 30×10^9 /ml Bacillus pertussis. The PCA reaction was visualized on intravenous injection of antigen (ovalbumin) and Evans Blue in rats which had been intradermally administered the antiserum (4 injections in the shaved back of each rat) 72 hours previously. The protective effect obtained on intraperitoneal administration of the compounds at a dosage of 100 mg/kg 30 minutes prior to ovalbumin injection is set forth in Table IV.
To determine the percent protection, the length of the longest diameter o
the spot and the length of the diameter perpendicular thereto are
measured. The product is expressed as mm^2.

[2] = system: mice; details: mouse, in vivo
[3] = system: isolated trachea of guinea-pigs; assay: Dilatation of the isolated trachea of guinea-pigs (Castillo & De Beer); design: species or system guinea-pig; details: 10 γ/ml, tensile load 500 mg; for % dilatation (tensile variation with respect to the activity of theophylline taken as 100%): relative to theophylline = 100%
Experimental: (a) Action on the isolated trachea of guinea-pigs The trachea is prepared according to the technique disclosed by Castillo & De Beer (J. Pharmacol. Exper. […] The organ is submitted to a tensile load of 500 mg.

[4] = system: anaphylactic shock in mice; assay: Protective effect against anaphylactic shock in mice; type: in vivo, mouse; details: 100 mg/kg i.p., 30 min prior to albumin; for responders at 100 mg/kg: Mus musculus, ip, 0.5 h, read-out: % surviving animals; for Number of dead animals: dead/total
Experimental: (a) Protective effect against anaphylactic shock in mice
The protective effect against anaphylactic shock was investigated according to the technique disclosed by Duhault and co-workers (Arzneim. Forschung, 1972, II, 1947). Four weeks after sensitization to bovine albumin, intravenous injection of 0.3 mg bovine albumin in mice causes a fatal anaphylactic shock within the 30 minutes which follow said injection.
The protective effect of compounds of the formula (I), on intraperitoneal administration, at a dosage of 100 mg/kg 30 minutes prior to albumin injection is illustrated in Table III.

[5] = system: humans; assay: First clinical tests in humans; type: in vivo, human
Excerpt: The first clinical tests provided the following data:
(2) In clinical pharmacology, functional respiratory exploration determinations provided the same bronchodilator effect found in animals.

[6] = in vivo; details: mouse
[7] = system: rats; assay: Chronic toxicity in rats, orally, 3 months; type: in vivo, rat; details: 3 months, 25, 100 and 300 mg/kg
[8] = system: bronchospasm induced by acetylcholine, serotonine and histamine; assay: Prevention of bronchospasm in anesthetized guinea-pigs (Konzett and Rossler); type: in vivo, guinea-pig; details: Cavia porcellus, iv, spasm by acetylcholine (10-20 γ/kg i.v.), serotonine (5 γ/kg i.v.) and histamine (10 γ/kg i.v.), read-out: ED100 (dosage providing 100% inhibition of the spasm)
[9] = system: dogs; assay: Chronic toxicity in dogs, 1 month; type: in vivo, dog; details: 20 and 160 mg/kg
[10] = system: mice; assay: Acute toxicity in mice; details: dosage 1000 mg/kg
[11] = Series 2 (controls 50% surviving)
[12] = Series 3 (controls 25% surviving)
[13] = Series 4 (controls 30% surviving)

Row | Compound | inhibition in vivo at 100 mg/kg [1] [%] | Tensile variation [3] [mg] | % dilatation (tensile variation with respect to the activity of theophylline taken as 100%) [3] [%] | LD50 ([6]; po) [mg/kg] | ED100 [8] [mg/kg] | further results
1 | Nc1nc(N)n2nccc2n1 [Example 1, 2,4-Diamino-pyrazolo[1,5-a]s.triazine] | 42 | -60 | 67 | 1250 | 20 to 25 | Number of dead animals at the dosage indicated, i.v. [2]: no; responders at 100 mg/kg ([4]; Series 1 (controls 20% surviving)): 50%; Number of dead animals ([4]; mice sensitized to bovine albumin, Series 1 (controls 16/20)): 10/20; tolerance in humans [5]: good tolerance; alteration of the biological constants / histological injury of the various organs [7]: neither alteration of the biological constants nor histological injury of the various organs
2 | Cc1cc2nc(N)nc(N)n2n1 [Example 2, 2,4-Diamino-7-methyl-pyrazolo[1,5-a]s.triazine] | 56 | -100 | 111 | 900 | 15 to 20 | alteration of the biological constants / histological injury of the various organs [9]: neither alteration of the biological constants nor histological injury of the various organs; Number of dead animals ([4]; Series 2 (controls 10/20)): 2/21; responders at 100 mg/kg [4, 11]: 90.5%; tolerance in humans [5]: good tolerance; LD50 ([6]; iv): 380 mg/kg; alteration of the biological constants / histological injury of the various organs [7]: neither alteration of the biological constants nor histological injury of the various organs
3 | CCc1nn2c(N)nc(N)nc2c1C [Example 3, 2,4-Diamino-7-ethyl-8-methyl-pyrazolo[1,5-a]s.triazine] | 92 | -100 | 111 | 200 |  | Number of dead animals ([4]; Series 3 (controls 15/20)): 6/19; responders at 100 mg/kg [4, 12]: 68.5%
4 | CNc1nc(N)nc2cc(C)nn12 [Example 4, 2-Amino-4-methylamino-7-methyl-pyrazolo[1,5-a]s.triazine] | 92 | -153 | 170 |  |  | LD50 p.o. ([2]; po): 1000 mg/kg; Number of dead animals ([4]; Series 3 (controls 15/20)): 9/20; responders at 100 mg/kg [4, 12]: 55%; tolerance in humans [5]: good tolerance; LD50 ([6]; iv): 300 mg/kg; alteration of the biological constants / histological injury of the various organs [7]: neither alteration of the biological constants nor histological injury of the various organs
5 | CNc1nc(NC)n2nc(C)cc2n1 [Example 5, 2,4-Bis-(methylamino)-7-methyl-pyrazolo[1,5-a]s.triazine] | 83 | -207 | 230 | 300 | 10 | 
6 | Cc1cc2nc(N)nc(NC(C)C)n2n1 [Example 6, 2-amino-4-isopropylamino-7-methyl-pyrazolo[1,5-a]s.triazine methane sulfonate] |  | -200 | 220 |  | 5 | Number of dead animals at the dosage indicated, p.o. [2]: one; Number of dead animals ([4]; Series 3 (controls 15/20)): 12/20; responders at 100 mg/kg [4, 12]: 40%
7 | C=CCNc1nc(N)nc2cc(C)nn12 [Example 7, 2-Amino-4-allylamino-7-methyl-pyrazolo[1,5-a]s.triazine] | 71 | -180 | 200 | 1200 | 5 | Number of dead animals at the dosage indicated, i.v. [2]: no; Number of dead animals ([4]; Series 4 (controls 14/20)): 2/20; responders at 100 mg/kg [4, 13]: 90%
8 | Cc1cc2nc(N)nc(NCC3CCCO3)n2n1 (centres unmarked) [Example 8, 2-Amino-4-tetrahydrofurfurylamino-7-methyl-pyrazolo[1,5-a]s.triazine] | 54 | -72 | 80 |  |  | Number of dead animals at the dosage indicated, p.o. [2]: two; Number of dead animals ([4]; Series 4 (controls 14/20)): 6/21; responders at 100 mg/kg [4, 13]: 71%
9 | CCCNc1nc(N)nc2cc(C)nn12 [Example 9] | 69 |  |  |  |  | Number of dead animals at the dosage indicated, p.o. [10]: one
10 | Cc1cc2nc(N)nc(NC(C)(C)C)n2n1 [Example 10] | 50 |  |  |  |  | Number of dead animals at the dosage indicated, p.o. [10]: one
11 | C=CCNc1nc(N)nc2ccnn12 [Example 11] |  |  |  |  |  | Number of dead animals at the dosage indicated, p.o. [10]: one
12 | Cn1c(=O)c2[nH]cnc2n(C)c1=O [Theophylline, reference compound] | 72 | -90 |  |  | 20 to 25 | Number of dead animals ([4]; Series 2 (controls 10/20)): 4/20; responders at 100 mg/kg [4, 11]: 80%
